From patent publication US11999697B2, “Methods and compositions for inhibition of dihydroorotate dehydrogenase” (OHIO STATE INNOVATION FOUNDATION, priority 2018, dated 2024)
Like-named read-outs stand apart in the source and are kept apart here.

What was measured:
[1] = system: IDH2-R140Q/Flt3-ITD spleen cells (murine AML); assay: IDH2-R140Q/Flt3-ITD adoptive transfer model; format: in vivo, NCG mice
Source text: Leukemic cells derived from a spontaneous murine model of Idh2/Flt3 AML, as reported by Shih et al (Cancer Discov. 7(5):494-505), were engrafted via adoptive transfer to generate an aggressive model of AML suitable for testing of therapeutic agents. Briefly, 6-8 week old mice harboring a heterozygous internal tandem duplication of FMS-like tyrosine kinase 3 (Flt3-ITD), a heterozygous point mutation of isocitrate dehydrogenase 2 (Idh2-R140Q) preceeded by a loxP flanked STOP codon, and Cre recombinase under the MX dynamin like GTPase 1 (Mx1) promoter were injected i.p. with polyinosinic:polycytidylic acid (poly(I:C)), activating Cre recombinase and inducing hematopoietic-specific expression of the Idh2-R140Q mutation. Spleen cells from these mice were collected after the development of lethal AML (defined by study removal criteria), typically 8-14 months post-poly(I:C) injection. 1×10^5 spleen cells from a single leukemic donor were engrafted by tail vein injection into 6 week old immune deficient NOD-Prkdc^em26Cd52//2rg^em26Cd22/NjuCrl mice (NCG; Charles River). At one week post-engraftment, animals were randomized to vehicle (5% EtOH, 10% Kolliphor EL, in PBS), enasidenib (100 mg/kg), and HOSU-3 (50 mg/kg) treatment arms and dosed by daily oral gavage. Personnel responsible for animal monitoring, dosing, and decisions regarding euthanasia were blinded to treatment arms. Survival was assessed using Kaplan-Meier analysis and p-values were determined using the log-rank test and adjusted using Holm's method.

primary human AML cells = assay: Cytospin slides and Wright-Giemsa staining for differentiation; format: cell-based; details: 1 μM, 14 days
Procedure: Cytospin slides and Wright-Giemsa staining for differentiation: Primary AML cells were solubilized from the methocult in the CFU assays. 150-300K cells were immobilized onto microscope slides and stained with Wright-Giemsa stain. Differentiated myeloid cells were recognized by the typical morphological changes associated with early neutrophil differentiation including a characteristic multi-lobed or kidney bean shaped nucleus.
The primary AML cells following treatment with Cpd3 were analyzed by Wright-Giemsa stain. FIGS. 4A-4C show representative micrographs of primary human AML cells treated a representative disclosed compound, Cpd3, compared to a reference compound, brequinar, or vehicle treatment using methods as described herein below. Briefly, primary AML cells were treated with vehicle (DMSO), Cpd3 (1 μM) or brequinar (BQR, 1 μM) and plated in semi-solid methylcellulose-based media for 14 days. Cells were recovered from the methylcellulose and immobilized on glass slides and stained with a Wright-Giemsa stain (the more differentiated myeloid cells are indicated by the red arrows). The images are shown for vehicle treatment (FIG. 4A); Cpd3 treatment (FIG. 4B); and brequinar treatment (FIG. 4C). The primary human AML cells are from a representative patient sample. […]

THP1 = assay: MTS cell proliferation assay, THP1; format: cell-based; details: Homo sapiens, THP-1, 96 hours
Procedure: Triplicate wells were set up for each condition.
The assays were carried out in a blinded fashion.

MV4-11 = assay: MTS cell proliferation assay, MV4-11; format: cell-based; details: for IC50: Homo sapiens, MV4-11, MTS
[2] = system: luciferase-expressing MOLM-13 cells; assay: MOLM13 xenograft study, daily dosage regimen; format: in vivo, NCG mice
Procedure: The effect of a representative disclosed compound, Cpd3, on in vivo tumor growth was assessed in a MOLM13 xenograft study was examined using a daily dosage regimen. Briefly, male NCG (NOD-Prkdc^em26Cd52//2rg^em26Cd22/NjuCrl) mice (N=12 per group) were given an intravenous injection of 1×10^4 luciferase-expressing MOLM-13 cells. As discussed above, this model is believed to be a very aggressive model of tumor growth (vehicle treated mice typically reach early removal criteria by 24-26 days post-engraftment). Briefly, NCG mice were injected with 1×10^4 MOLM13-luciferase cells (N=12 per group) and at 4 days post-engraftment (Day 0) were imaged and enrolled into one of three treatment groups: Vehicle, 25 mg/kg Cpd3 (administered daily) or 50 mg/kg Cpd3 (administered daily). […] The color scale represents the radiance (p/s/cm2/sr), related to the amount of luciferase expression and therefore disease burden. […] Survival data were calculated using Kapler Meyer analysis (vehicle vs. 25 mg/kg dosing with Cpd3 or vehicle vs. 50 mg/kg dosing with Cpd3; each p<0.001). Arrow indicates the start of treatment.

CCOc1ccc(-c2ccc(-c3cc(C(=O)O)c4cc(F)ccc4n3)cc2)cc1 [Cpd3, 2-(4′-ethoxy-[1,1′-biphenyl]-4-yl)-6-fluoroquinoline-4-carboxylic acid]
survival compared to vehicle and enasidinib treatment groups ([1]; 50 mg/kg once daily): significant improvement in survival | Median survival ([1]; daily oral gavage, Cpd3 50 mg/kg, enasidenib 100 mg/kg): 42 days | differentiation by Wright-Giemsa stain (primary human AML cells): induces differentiation in primary human AML cells | IC50 (THP1): 1.1 µM | rescue of cytotoxic effects by uridine (MV4-11; 0.25 or 0.5 μM compound, uridine 0 to 200 μM, 96 hours): rescued by growth in the presence of uridine | IC50 (MV4-11; 96 hour, Table 7, read-out: 96 hour IC50 (nM) in MV-411 cell line): ~500 nM | IC50 (MV4-11; 96 hours, read-out: IC50 (μM) at 96 hours, MV4-11): 670 nM | Median survival time ([2]; 25 mg/kg QD PO): 24 days | Median survival time ([2]; 50 mg/kg QD PO): 27 days | tumor burden (luciferase expression by IVIS imaging) ([2]; 25 or 50 mg/kg administered daily): able to reduce the tumor burden in the mice
